From patent publication US11401255B2, “Small molecule activators of Parkin enzyme function” (Mayo Foundation for Medical Education and Research, priority 2016, dated 2022)

Tests used:
CYP 2D6 = CYP 2D6 (Homo sapiens (Human), UniProt P10635); experiment: in vitro; conditions: Inhibition
Protocol: CYP450 inhibition profiling provides valuable information regarding any possible drug-drug interactions for a test compound.
All experiments were performed using P450-Glo™ Assay Systems (Promega) in accordance with the manufacturer's protocols. The P450-Glo™ Assays provide a luminescent readout-based method for measuring cytochrome P450 activity. A conventional cytochrome P450 reaction was performed by incubating the cytochrome P450 and a luminogenic cytochrome P450 substrate. The substrates in the P450-Glo™ assays are derivatives of beetle luciferin. The derivatives themselves are not substrates for luciferase but are converted by cytochrome P450s to luciferin, which in turn reacts with luciferase to produce light. The amount of light produced was directly proportional to cytochrome P450 activity. All test points were performed in quadruplicates. Control membranes (without CYPs) represented the Negative control (baseline).
The following reference compounds were used to assess CYP inhibition: […]

HeLa EGFP-Parkin cells = experiment: Co-recruitment of autophagy receptors to mitochondria (immunofluorescence); assay type: cell-based, human
Protocol: Cells were grown on poly-D-lysine coated glass coverslips. After treatments, cells were fixed in 4% paraformaldehyde and permeabilized using 1% Triton X-100, for each 10 min. Cells were blocked in 10% goat serum. Primary and secondary antibodies were diluted in 1% BSA/PBS and each incubated for 1 h at RT. Primary antibodies used: DNA (mouse, 1:250, Progen, AC-30-10), NBR1 (mouse, 1:100, Abnova H00004077-M01), NDP52 (rabbit, 1:400, Proteintech, 12229-1-AP), OPTN (mouse, 1:200, Santa Cruz, sc-166576), p62 (mouse, 1:400, BD Biosciences, 610832), pSer65-Ub (rabbit, 1:500, in-house (Fiesel et al., EMBO Reports (2015) 16:1114-30; Fiesel et al., (2015) Autophagy 11:2125-2126)), TAX1BP1 (rabbit, 1:200, Cell Signaling, #5105), TOM20 (mouse, 1:100, Santa Cruz, sc-17764), TOM20 (rabbit, 1:2000, Proteintech, 11802-1-AP). Secondary antibodies conjugated to AlexaFluor-568 or-647 (Invitrogen) were diluted 1:1000. Hoechst 33342 (Invitrogen) was diluted 1:5000 to counterstain the nuclei.
To validate the activation of Parkin further downstream in the pathway, co-recruitment of endogenous autophagy receptors to mitochondria in HeLa EGFP-Parkin cells was analyzed. These dual adaptors recognize pSer65-Ub chains on damaged mitochondria and facilitate their engulfment by autophagosomal membrane via their interaction with LC3 proteins (Lazarou et al., Nature (2015) 524:309-14; Heo et al., Mol. Cell (2015) 60:7-20).

[1] = Metabolic stability in mouse liver microsomes; assay type: in vitro ADME; conditions: 2 μM, 40 minutes, mouse hepatic microsomes
Protocol: Metabolic stability was defined as the percentage of parent compound lost over time in the presence of a metabolically active test system, such as rodent liver microsomal fractions.
Mouse hepatic microsomes were isolated from pooled (50), perfused livers of BALB/c male mice according to the standard protocol (Hill, J. R. in Current Protocols in Pharmacology 7.8.1-7.8.11, Wiley Interscience, 2003). The batch of microsomes was tested for quality control using imipramine, propranolol and verapamil as reference compounds. Microsomal incubations were carried out in 96-well plates in 5 aliquots of 40 μL each (one for each time point). Liver microsomal incubation medium contained PBS (100 mM, pH 7.4), MgCl2 (3.3 mM), NADPH (3 mM), glucose-6-phosphate (5.3 mM), glucose-6-phosphate dehydrogenase (0.67 units/mL) with 0.42 mg of liver microsomal protein per mL. Control incubations were performed replacing the NADPH-cofactor system with PBS. Compounds 1-4 and 31 (2 μM, final solvent concentration 1.6%) were each incubated with microsomes at 37° C. while shaking at […]. Incubations were performed in duplicates. Five time points over 40 minutes were analyzed. The reactions were stopped by adding 12 volumes of 90% acetonitrile-water to incubation aliquots, followed by protein sedimentation by centrifuging at 5500 rpm for 3 minutes. Supernatants were analyzed using the HPLC system coupled with tandem mass spectrometer. The elimination constant (kel), half-life (t1/2) and intrinsic clearance (Clint) were determined in a plot of ln(AUC) versus time, using linear regression analysis:
[formula] [formula] In order to indicate the quality of the linear regression analysis, the R (correlation coefficient) values were provided. In some cases, the last time point was excluded from the calculations to ensure acceptable logarithmic linearity of decay. C. Results

Sequence of CYP 2D6 (P10635 whole entry): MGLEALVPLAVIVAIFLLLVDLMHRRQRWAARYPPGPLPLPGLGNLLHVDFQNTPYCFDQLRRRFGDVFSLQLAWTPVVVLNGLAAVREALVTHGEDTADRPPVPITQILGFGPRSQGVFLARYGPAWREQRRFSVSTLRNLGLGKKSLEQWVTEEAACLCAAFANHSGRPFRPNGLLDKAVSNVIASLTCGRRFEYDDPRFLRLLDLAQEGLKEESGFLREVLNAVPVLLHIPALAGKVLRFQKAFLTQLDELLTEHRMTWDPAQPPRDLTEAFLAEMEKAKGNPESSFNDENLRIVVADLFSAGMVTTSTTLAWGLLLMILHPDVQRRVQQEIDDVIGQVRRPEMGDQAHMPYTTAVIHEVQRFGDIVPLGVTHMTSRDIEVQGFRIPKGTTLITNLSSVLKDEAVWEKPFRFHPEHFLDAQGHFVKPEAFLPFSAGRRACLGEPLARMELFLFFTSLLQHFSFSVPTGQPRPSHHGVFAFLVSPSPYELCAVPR

SMILES | inhibition at 10 µM (CYP 2D6; % (individual replicates)) [%] | inhibition at 10 µM (CYP 2D6; % Mean) [%] | co-localization of OPTN, NBR1, NDP52, p62 and TAX1BP1 with Parkin on damaged mitochondria (HeLa EGFP-Parkin cells) | metabolic stability [1]
O=C(Cn1cnc2c1CCCC2)Nc1ccc(-c2ccccc2)cc1 [Compound 1] | 18.5 | 17 | increased co-localization | moderate stability
CC(C)c1nccn1CC(=O)Nc1ccc(-c2ccccc2)cc1 [Compound 2] | – | 17.3 | increased co-localization | moderate stability
CC(C)(C)Sc1ccc(NC(=O)Cn2ccnc2)cc1 [Compound 3] | 98.9 | 99.7 | increased co-localization | high metabolic stability
O=C(Cn1ccnc1-c1ccccn1)Nc1ccc(-c2ccccc2)cc1 [Compound 4] | – | 18.4 | increased co-localization | low stability
Cc1nc2c(c(N3CCCN(Cc4ccccc4)CC3)n1)CCCC2 [Compound 31] | – | 60.6 | increased co-localization | low stability
